Results as given in ChEMBL document CHEMBL5653615 (J Biol Chem, 2013).

Experiments:
[1] = biological target: Calcium/calmodulin-dependent protein kinase type II subunit delta (Homo sapiens) (UniProt Q13557); assay: Inhibition of human CAMK2d at 1.82 nM by HotSpot assay relative to control
[2] = biological target: Casein kinase I isoform gamma-1 (Homo sapiens) (UniProt Q9HCP0); assay: Inhibition of human CK1g1 at 1.82 nM by HotSpot assay relative to control
[3] = biological target: Tyrosine-protein kinase FRK (Homo sapiens) (UniProt P42685); assay: Inhibition of human FRK at 1.82 nM by HotSpot assay relative to control
[4] = biological target: T1, Serine/threonine-protein kinase NLK (Homo sapiens) (UniProt Q9UBE8); assay: Inhibition of human NLK at 1.82 nM by HotSpot assay relative to control
T1 sequence (whole entry): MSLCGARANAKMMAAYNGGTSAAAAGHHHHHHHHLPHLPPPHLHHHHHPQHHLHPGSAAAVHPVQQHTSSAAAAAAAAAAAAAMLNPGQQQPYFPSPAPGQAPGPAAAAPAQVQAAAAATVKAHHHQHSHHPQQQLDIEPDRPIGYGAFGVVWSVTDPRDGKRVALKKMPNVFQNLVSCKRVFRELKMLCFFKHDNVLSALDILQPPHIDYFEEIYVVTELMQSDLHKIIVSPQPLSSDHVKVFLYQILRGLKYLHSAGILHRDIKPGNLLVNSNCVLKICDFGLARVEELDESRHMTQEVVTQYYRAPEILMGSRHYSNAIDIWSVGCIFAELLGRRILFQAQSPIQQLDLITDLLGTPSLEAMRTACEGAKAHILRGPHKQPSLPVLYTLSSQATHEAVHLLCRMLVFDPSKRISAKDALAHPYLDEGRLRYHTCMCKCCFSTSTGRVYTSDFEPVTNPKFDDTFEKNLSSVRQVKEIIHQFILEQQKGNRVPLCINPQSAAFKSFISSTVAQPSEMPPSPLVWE

[5] = biological target: T2, Mitogen-activated protein kinase 13 (Homo sapiens) (UniProt O15264); assay: Inhibition of human MAPK13 at 1.82 nM by HotSpot assay relative to control
T2 sequence (whole entry): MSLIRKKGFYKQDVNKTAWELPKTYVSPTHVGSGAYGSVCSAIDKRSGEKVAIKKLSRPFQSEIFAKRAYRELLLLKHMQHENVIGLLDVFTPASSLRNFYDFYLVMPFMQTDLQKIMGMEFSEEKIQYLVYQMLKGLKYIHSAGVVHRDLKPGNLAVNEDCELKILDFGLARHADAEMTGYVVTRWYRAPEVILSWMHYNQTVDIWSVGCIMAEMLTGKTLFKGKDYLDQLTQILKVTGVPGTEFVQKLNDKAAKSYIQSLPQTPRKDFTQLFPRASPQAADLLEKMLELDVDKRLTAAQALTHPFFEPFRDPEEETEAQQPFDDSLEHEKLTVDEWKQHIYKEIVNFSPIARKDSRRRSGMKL

[6] = biological target: T3, Protein kinase C zeta type (Homo sapiens) (UniProt Q05513); assay: Inhibition of human PKCzeta at 1.82 nM by HotSpot assay relative to control
T3 sequence (whole entry): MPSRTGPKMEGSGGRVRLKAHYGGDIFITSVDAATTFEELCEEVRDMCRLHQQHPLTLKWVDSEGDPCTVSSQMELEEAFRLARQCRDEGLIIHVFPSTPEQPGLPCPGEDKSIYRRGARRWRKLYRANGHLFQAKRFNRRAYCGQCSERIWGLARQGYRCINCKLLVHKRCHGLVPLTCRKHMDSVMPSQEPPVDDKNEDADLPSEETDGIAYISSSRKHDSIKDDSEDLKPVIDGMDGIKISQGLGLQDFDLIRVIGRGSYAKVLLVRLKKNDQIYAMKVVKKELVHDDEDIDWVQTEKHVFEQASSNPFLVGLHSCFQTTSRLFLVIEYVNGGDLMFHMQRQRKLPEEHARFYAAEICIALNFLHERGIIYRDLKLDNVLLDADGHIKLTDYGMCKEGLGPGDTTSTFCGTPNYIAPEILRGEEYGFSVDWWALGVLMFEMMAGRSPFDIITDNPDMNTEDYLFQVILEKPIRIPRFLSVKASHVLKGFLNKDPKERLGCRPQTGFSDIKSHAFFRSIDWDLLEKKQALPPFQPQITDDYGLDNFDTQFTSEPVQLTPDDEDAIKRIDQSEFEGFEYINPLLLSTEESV

[7] = biological target: T4, Serine/threonine-protein kinase Sgk2 (Homo sapiens) (UniProt Q9HBY8); assay: Inhibition of human SGK2 at 1.82 nM by HotSpot assay relative to control
T4 sequence (whole entry): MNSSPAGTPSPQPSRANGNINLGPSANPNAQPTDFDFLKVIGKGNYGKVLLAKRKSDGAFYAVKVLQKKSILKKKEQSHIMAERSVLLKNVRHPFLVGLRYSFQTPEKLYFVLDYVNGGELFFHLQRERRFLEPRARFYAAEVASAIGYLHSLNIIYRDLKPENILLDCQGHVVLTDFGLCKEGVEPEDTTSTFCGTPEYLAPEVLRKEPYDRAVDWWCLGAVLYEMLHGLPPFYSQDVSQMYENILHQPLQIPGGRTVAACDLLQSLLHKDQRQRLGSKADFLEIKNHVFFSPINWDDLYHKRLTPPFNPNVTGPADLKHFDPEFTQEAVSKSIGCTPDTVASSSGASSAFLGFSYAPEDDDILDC

[8] = biological target: Tyrosine-protein kinase SYK (Homo sapiens) (UniProt P43405); assay: Inhibition of human SYK at 1.82 nM by HotSpot assay relative to control

Chain of Calcium/calmodulin-dependent protein kinase type II subunit delta (Homo sapiens) (Q13557 whole entry, canonical isoform): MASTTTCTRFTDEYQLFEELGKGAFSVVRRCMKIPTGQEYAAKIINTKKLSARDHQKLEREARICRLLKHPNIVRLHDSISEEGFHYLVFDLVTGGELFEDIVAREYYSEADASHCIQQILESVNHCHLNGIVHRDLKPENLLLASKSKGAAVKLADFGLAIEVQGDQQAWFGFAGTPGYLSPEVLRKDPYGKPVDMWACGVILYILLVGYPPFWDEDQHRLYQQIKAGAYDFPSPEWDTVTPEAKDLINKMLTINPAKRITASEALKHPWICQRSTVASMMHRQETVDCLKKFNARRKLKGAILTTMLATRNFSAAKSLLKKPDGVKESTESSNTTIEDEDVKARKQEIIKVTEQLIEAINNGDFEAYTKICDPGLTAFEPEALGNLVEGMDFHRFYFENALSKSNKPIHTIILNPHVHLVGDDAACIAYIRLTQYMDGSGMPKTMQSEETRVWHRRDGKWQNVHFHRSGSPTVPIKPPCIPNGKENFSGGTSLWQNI
Chain of Tyrosine-protein kinase FRK (Homo sapiens) (P42685 whole entry): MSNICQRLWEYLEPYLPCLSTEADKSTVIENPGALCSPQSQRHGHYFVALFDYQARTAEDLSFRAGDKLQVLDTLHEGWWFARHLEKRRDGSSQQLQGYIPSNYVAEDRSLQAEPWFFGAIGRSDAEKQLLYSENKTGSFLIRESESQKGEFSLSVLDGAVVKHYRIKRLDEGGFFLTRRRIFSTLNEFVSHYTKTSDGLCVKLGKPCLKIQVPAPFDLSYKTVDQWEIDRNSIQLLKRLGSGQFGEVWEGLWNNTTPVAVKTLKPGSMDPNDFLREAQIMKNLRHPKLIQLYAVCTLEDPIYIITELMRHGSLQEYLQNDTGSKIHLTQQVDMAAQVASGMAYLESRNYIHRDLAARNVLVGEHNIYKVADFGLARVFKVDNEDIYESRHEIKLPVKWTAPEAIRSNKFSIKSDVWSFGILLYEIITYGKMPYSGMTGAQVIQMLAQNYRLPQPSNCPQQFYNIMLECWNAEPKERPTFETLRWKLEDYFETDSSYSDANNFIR
Chain of Casein kinase I isoform gamma-1 (Homo sapiens) (Q9HCP0 whole entry, looked up, canonical isoform): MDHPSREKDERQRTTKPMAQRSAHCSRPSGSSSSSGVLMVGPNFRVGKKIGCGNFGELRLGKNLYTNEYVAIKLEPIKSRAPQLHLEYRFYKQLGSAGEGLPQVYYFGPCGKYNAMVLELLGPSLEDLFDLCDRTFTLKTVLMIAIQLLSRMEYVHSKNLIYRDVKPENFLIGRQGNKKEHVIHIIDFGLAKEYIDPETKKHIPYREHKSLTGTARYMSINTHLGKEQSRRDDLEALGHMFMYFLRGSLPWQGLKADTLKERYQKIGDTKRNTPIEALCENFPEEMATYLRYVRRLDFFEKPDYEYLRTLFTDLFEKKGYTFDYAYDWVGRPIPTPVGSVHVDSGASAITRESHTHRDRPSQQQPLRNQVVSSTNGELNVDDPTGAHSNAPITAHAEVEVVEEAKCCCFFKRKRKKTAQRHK

inhibition [1]: -2.72%
inhibition [2]: -3.54%
inhibition [3]: 0.97%
inhibition [4]: 2.48%
inhibition [5]: -4.13%
inhibition [6]: -1.74%
inhibition [7]: -0.21%
inhibition [8]: -1.25%
Compound: C[C@@]1(C(=O)Nc2ccc(F)nc2)CCCN1c1nc(Nc2cc(C3CC3)n[nH]2)c2cccn2n1
